Assay results reported in US12371464B2, “Polypeptides and uses thereof” (MEDIMMUNE LIMITED, priority 2020, dated 2025).
Numbered stars: 1 amine (or outer) side, 2 acyl side, 3 side chain; on linkers, the order of the positions; unused ones are H or OH. Bridge positions count the residues as written; N and C are the ends. Square brackets hold non-standard residues; d marks the D form. Side chains are listed from the residue outwards. Peptide text beside a SMILES is read from it. * marks the point of attachment. C20 diacid = O=C(O)CCCCCCCCCCCCCCCCCCC(=O)*; C18 diacid = O=C(O)CCCCCCCCCCCCCCCCC(=O)*; γGlu = O=C(O)[C@H](CCC(=O)[*:2])N[*:1]; Dab = NCC[C@H](N)C(=O)O; AEEA = NCCOCCOCC(=O)O; Aib = CC(C)(N)C(=O)O

Legend:
lean rats = assay: Rat acute food intake study; format: in vivo, Sprague Dawley rats; settings: 20 nmol/kg subcutaneously
Protocol: Male Sprague Dawley rats were obtained from Taconic Denmark, ApS at approximately 7 weeks of age. . . . Rats were implanted with a microchip for identification, housed 4/cage with enrichment, free access to food and water, and allowed one week acclimatisation while non-invasive characterization was performed. Rats were on a 12:12 light:dark cycle that switches at 1 pm:1 am. Food intake was monitored via the HM2 system (Lafayette Instrument) that allows for monitoring in a home cage. As each rat enters an access tunnel to feed, an IR beam is broken, and the implanted microchip is read. Resulting changes to food weight is then assigned to the specific animal. Social order has shown no impact to overall feeding patterns and amounts.
Rats were sorted into groups based on Day-1 body weight and 24-hour accumulated food intake (n=7 per group). On Day 0 rats were weighed, then fasted for 6 hours. Thirty (30) minutes prior to the reintroduction of food, rats were dosed subcutaneously (5 ml/kg) with 20 nmol/kg of test compound or 60 nmol/kg peptide 1 (pramlintide) diluted in an appropriate vehicle, after which food was returned, and lights went out. Automated food intake was monitored for the following 3 days, and rats were weighed once per day.
Food intake per rat was batched into 1-hour intervals and integrated into Gubra's GubraView data management system. Discrete food intake data was exported into MS Excel from which cumulative food intake data was generated. Cumulative food intake data was then transposed into GraphPad Prism (v8.0.1) for analysis of dark period feeding

[1] = Thioflavin T fibrillation assay; format: physicochemical; settings: for Time taken to detect increase in fluorescence intensity: 1 mg/mL in 25 mM sodium acetate buffer pH 4.0, 37° C., 6 days, orbital shaking, >144 h = no increase; for fibril-forming tendency on conjugating pramlintide to a lipid: as seen in Table 7
How it was run: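 Peptides at 1 mg/mL in 25 mM sodium acetate pH 4.0 were mixed with ThT (0.25 mM stock) and held 6 days at 37 °C with intermittent orbital shaking at 500–750 rpm. Fluorescence (ex 444/em 480 nm) was read every 30 min, with buffer baseline correction and 5 replicates. Value: mean time to a detectable fluorescence increase.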

SMILES | Cummulative food intake (% vehicle treated intake) At 12 h (lean rats) | Time taken to detect increase in fluorescence intensity [1] | fibril-forming tendency on conjugating pramlintide to a lipid [1] | also measured
CC[C@H](C)[C@H](NC(=O)[C@@H]1CCCN1C(=O)CNC(=O)[C@H](Cc1ccccc1)NC(=O)[C@H](CC(N)=O)NC(=O)C(C)(C)NC(=O)[C@H](CO)NC(=O)[C@H](CO)NC(=O)[C@H](Cc1c[nH]cn1)NC(=O)[C@@H](NC(=O)[C@H](CC(C)C)NC(=O)[C@H](Cc1ccccc1)NC(=O)[C@H](CC(N)=O)NC(=O)[C@H](C)NC(=O)[C@H](CC(C)C)NC(=O)[C@H](CCCNC(=N)N)NC(=O)[C@H](CCC(N)=O)NC(=O)[C@@H](NC(=O)[C@H](C)NC(=O)[C@@H]1CSSC[C@H](NC(=O)[C@H](CCCCN)NC(=O)[C@@H](N)CCCCNC(=O)CC[C@H](NC(=O)CCCCCCCCCCCCCCCCC(=O)O)C(=O)O)C(=O)N[C@@H](CC(N)=O)C(=O)N[C@@H]([C@@H](C)O)C(=O)N[C@@H](C)C(=O)N[C@@H]([C@@H](C)O)C(=O)N1)[C@@H](C)O)C(C)C)C(=O)N[C@@H](CC(C)C)C(=O)N1CCC[C@H]1C(=O)N1CCC[C@H]1C(=O)N[C@H](C(=O)N[C@@H](CC(N)=O)C(=O)N[C@H](C(=O)NCC(=O)N[C@@H](CO)C(=O)N[C@@H](CC(N)=O)C(=O)N[C@H](C(=O)N[C@@H](Cc1ccc(O)cc1)C(N)=O)[C@@H](C)O)C(C)C)[C@@H](C)O [Peptide 35, K(γE-C18diacid)K[CNTATC]ATQRLANFLVHSS(Aib)NFGPILPPTNVGSNTY-amide] (H-K([γGlu-C18 diacid])KCNTATCATQRLANFLVHSS[Aib]NFGPILPPTNVGSNTY-NH2; disulfide 3-8; N-terminus assumed) | – | – | – | Cummulative food intake (% vehicle treated intake) At 48 h (lean rats; at 48 h): 72 % vehicle treated intake
CC[C@H](C)[C@H](NC(=O)[C@@H]1CCCN1C(=O)CNC(=O)[C@H](Cc1ccccc1)NC(=O)[C@H](CC(N)=O)NC(=O)C(C)(C)NC(=O)[C@H](CO)NC(=O)[C@H](CO)NC(=O)[C@H](Cc1c[nH]cn1)NC(=O)[C@@H](NC(=O)[C@H](CC(C)C)NC(=O)[C@H](Cc1ccccc1)NC(=O)[C@H](CCC(=O)O)NC(=O)[C@H](C)NC(=O)[C@H](CC(C)C)NC(=O)[C@H](CCCNC(=N)N)NC(=O)[C@H](CCC(N)=O)NC(=O)[C@@H](NC(=O)[C@H](C)NC(=O)[C@@H]1CSSC[C@H](NC(=O)[C@H](CCCCN)NC(=O)[C@@H](N)CCCCNC(=O)CC[C@H](NC(=O)CCCCCCCCCCCCCCCCC(=O)O)C(=O)O)C(=O)N[C@@H](CC(N)=O)C(=O)N[C@@H]([C@@H](C)O)C(=O)N[C@@H](C)C(=O)N[C@@H]([C@@H](C)O)C(=O)N1)[C@@H](C)O)C(C)C)C(=O)N[C@@H](CC(C)C)C(=O)N1CCC[C@H]1C(=O)N1CCC[C@H]1C(=O)N[C@H](C(=O)N[C@@H](CC(N)=O)C(=O)N[C@H](C(=O)NCC(=O)N[C@@H](CO)C(=O)N[C@@H](CC(N)=O)C(=O)N[C@H](C(=O)N[C@@H](Cc1ccc(O)cc1)C(N)=O)[C@@H](C)O)C(C)C)[C@@H](C)O [Peptide 38, K(γE-C18diacid)K[CNTATC]ATQRLAEFLVHSS(Aib)NFGPILPPTNVGSNTY-amide] (H-K([γGlu-C18 diacid])KCNTATCATQRLAEFLVHSS[Aib]NFGPILPPTNVGSNTY-NH2; disulfide 3-8; N-terminus assumed) | 6.9 % vehicle treated intake | – | – | Cummulative food intake (% vehicle treated intake) At 24 h (lean rats; at 24 h): 5.5 % vehicle treated intake
CC[C@H](C)[C@H](NC(=O)[C@@H]1CCCN1C(=O)CNC(=O)[C@H](Cc1ccccc1)NC(=O)[C@H](CC(N)=O)NC(=O)[C@H](CC(N)=O)NC(=O)[C@H](CO)NC(=O)[C@H](CO)NC(=O)[C@H](Cc1c[nH]cn1)NC(=O)[C@@H](NC(=O)[C@H](CC(C)C)NC(=O)[C@H](Cc1ccccc1)NC(=O)[C@H](CC(N)=O)NC(=O)[C@H](C)NC(=O)[C@H](CC(C)C)NC(=O)[C@H](CCCNC(=N)N)NC(=O)[C@H](CCC(N)=O)NC(=O)[C@@H](NC(=O)[C@H](C)NC(=O)[C@@H]1CSSC[C@H](NC(=O)[C@H](CCCCN)NC(=O)CC[C@H](NC(=O)CCCCCCCCCCCCCCCCCCC(=O)O)C(=O)O)C(=O)N[C@@H](CC(N)=O)C(=O)N[C@@H]([C@@H](C)O)C(=O)N[C@@H](C)C(=O)N[C@@H]([C@@H](C)O)C(=O)N1)[C@@H](C)O)C(C)C)C(=O)N[C@@H](CC(C)C)C(=O)N1CCC[C@H]1C(=O)N1CCC[C@H]1C(=O)N[C@H](C(=O)N[C@@H](CC(N)=O)C(=O)N[C@H](C(=O)NCC(=O)N[C@@H](CO)C(=O)N[C@@H](CC(N)=O)C(=O)N[C@H](C(=O)N[C@@H](Cc1ccc(O)cc1)C(N)=O)[C@@H](C)O)C(C)C)[C@@H](C)O [Peptide 112] ({C20 diacid-γGlu}-KCNTATCATQRLANFLVHSSNNFGPILPPTNVGSNTY-NH2; disulfide 2-7) | – | <5 h | increases the fibril-forming tendency | –
CC[C@H](C)[C@H](NC(=O)[C@@H]1CCCN1C(=O)CNC(=O)[C@H](Cc1ccccc1)NC(=O)[C@H](CC(N)=O)NC(=O)[C@H](CC(N)=O)NC(=O)[C@H](CO)NC(=O)[C@H](CO)NC(=O)[C@H](Cc1c[nH]cn1)NC(=O)[C@@H](NC(=O)[C@H](CC(C)C)NC(=O)[C@H](Cc1ccccc1)NC(=O)[C@H](CC(N)=O)NC(=O)[C@H](C)NC(=O)[C@H](CC(C)C)NC(=O)[C@H](CCCNC(=N)N)NC(=O)[C@H](CCC(N)=O)NC(=O)[C@@H](NC(=O)[C@H](C)NC(=O)[C@@H]1CSSC[C@H](NC(=O)[C@H](CCCCN)NC(=O)COCCOCCNC(=O)COCCOCCNC(=O)CC[C@H](NC(=O)CCCCCCCCCCCCCCCCCCC(=O)O)C(=O)O)C(=O)N[C@@H](CC(N)=O)C(=O)N[C@@H]([C@@H](C)O)C(=O)N[C@@H](C)C(=O)N[C@@H]([C@@H](C)O)C(=O)N1)[C@@H](C)O)C(C)C)C(=O)N[C@@H](CC(C)C)C(=O)N1CCC[C@H]1C(=O)N1CCC[C@H]1C(=O)N[C@H](C(=O)N[C@@H](CC(N)=O)C(=O)N[C@H](C(=O)NCC(=O)N[C@@H](CO)C(=O)N[C@@H](CC(N)=O)C(=O)N[C@H](C(=O)N[C@@H](Cc1ccc(O)cc1)C(N)=O)[C@@H](C)O)C(C)C)[C@@H](C)O [Peptide 113] ({C20 diacid-γGlu-AEEA-AEEA}-KCNTATCATQRLANFLVHSSNNFGPILPPTNVGSNTY-NH2; disulfide 2-7) | – | <5 h | increases the fibril-forming tendency | –
CC[C@H](C)[C@H](NC(=O)[C@@H]1CCCN1C(=O)CNC(=O)[C@H](Cc1ccccc1)NC(=O)[C@H](CC(N)=O)NC(=O)[C@H](CC(N)=O)NC(=O)[C@H](CO)NC(=O)[C@H](CO)NC(=O)[C@H](Cc1c[nH]cn1)NC(=O)C(C)(C)NC(=O)[C@H](CC(C)C)NC(=O)[C@H](Cc1ccccc1)NC(=O)[C@H](CC(N)=O)NC(=O)[C@H](C)NC(=O)[C@H](CC(C)C)NC(=O)[C@H](CCCNC(=N)N)NC(=O)[C@H](CCC(N)=O)NC(=O)[C@@H](NC(=O)[C@H](C)NC(=O)[C@@H]1CSSC[C@H](NC(=O)[C@@H](N)CCCCNC(=O)CC[C@H](NC(=O)CCCCCCCCCCCCCCCCC(=O)O)C(=O)O)C(=O)N[C@@H](CC(N)=O)C(=O)N[C@@H]([C@@H](C)O)C(=O)N[C@@H](C)C(=O)N[C@@H]([C@@H](C)O)C(=O)N1)[C@@H](C)O)C(=O)N[C@@H](CC(C)C)C(=O)N1CCC[C@H]1C(=O)N1CCC[C@H]1C(=O)N[C@H](C(=O)N[C@@H](CC(N)=O)C(=O)N[C@H](C(=O)NCC(=O)N[C@@H](CO)C(=O)N[C@@H](CC(N)=O)C(=O)N[C@H](C(=O)N[C@@H](Cc1ccc(O)cc1)C(N)=O)[C@@H](C)O)C(C)C)[C@@H](C)O [Peptide 149] (H-K([γGlu-C18 diacid])CNTATCATQRLANFL[Aib]HSSNNFGPILPPTNVGSNTY-NH2; disulfide 2-7; N-terminus assumed) | 31 % vehicle treated intake | – | – | –
CC[C@H](C)[C@H](NC(=O)[C@@H]1CCCN1C(=O)CNC(=O)[C@H](Cc1ccccc1)NC(=O)[C@H](CC(N)=O)NC(=O)[C@H](CC(N)=O)NC(=O)[C@H](CO)NC(=O)[C@H](CO)NC(=O)[C@H](Cc1c[nH]cn1)NC(=O)C(C)(C)NC(=O)[C@H](CC(C)C)NC(=O)[C@H](Cc1ccccc1)NC(=O)[C@H](CCN)NC(=O)[C@H](C)NC(=O)[C@H](CC(C)C)NC(=O)[C@H](CCCNC(=N)N)NC(=O)[C@H](CCC(N)=O)NC(=O)[C@@H](NC(=O)[C@H](C)NC(=O)[C@@H]1CSSC[C@H](NC(=O)[C@H](CCCCN)NC(=O)[C@@H](N)CCCCNC(=O)CC[C@H](NC(=O)CCCCCCCCCCCCCCCCC(=O)O)C(=O)O)C(=O)N[C@@H](CC(N)=O)C(=O)N[C@@H]([C@@H](C)O)C(=O)N[C@@H](C)C(=O)N[C@@H]([C@@H](C)O)C(=O)N1)[C@@H](C)O)C(=O)N[C@@H](CC(C)C)C(=O)N1CCC[C@H]1C(=O)N1CCC[C@H]1C(=O)N[C@H](C(=O)N[C@@H](CCC(=O)O)C(=O)N[C@H](C(=O)NCC(=O)N[C@@H](CO)C(=O)N[C@@H](CC(N)=O)C(=O)N[C@H](C(=O)N[C@@H](Cc1ccc(O)cc1)C(N)=O)[C@@H](C)O)C(C)C)[C@@H](C)O [Peptide 156] (H-K([γGlu-C18 diacid])KCNTATCATQRLA[Dab]FL[Aib]HSSNNFGPILPPTEVGSNTY-NH2; disulfide 3-8; N-terminus assumed) | – | >144 h | – | –
